Laboratory results from ChEMBL document CHEMBL5230087, “Inhibitors of SARS-CoV-2 Entry: Current and Future Opportunities” (J Med Chem, 2020).
Square brackets hold non-standard residues; d marks the D form. Peptide text beside a SMILES is read from it. * marks the point of attachment. ξ: configuration not given here. ξF = NC(Cc1ccccc1)C(=O)O; Cbz = O=C(OCc1ccccc1)*

Key:
[1] = Cytotoxicity against african green monkey Vero cells incubated for 3 days; assay type: toxicity, cell-based; conditions: chlorocebus sabaeus, time 3 day
[2] = Antiviral activity against pseudovirus SARS-CoV spike protein infected in HeLa cells over expressing ACE2 assessed as inhibition on pseudovirus infection incubated for 52 hrs by luminescence based microplate reader analysis; assay type: functional, cell-based
[3] = test system: Ebolavirus; assay: microbe, parasite or virus in culture; assay type: functional, organism-based; conditions: Orthoebolavirus
[4] = biological target: T1, Angiotensin-converting enzyme 2 (Homo sapiens, UniProt Q9BYF1); assay: Binding affinity to ACE2 (unknown origin) at 10 uM assessed as inhibition constant
T1 sequence (Q9BYF1 whole entry): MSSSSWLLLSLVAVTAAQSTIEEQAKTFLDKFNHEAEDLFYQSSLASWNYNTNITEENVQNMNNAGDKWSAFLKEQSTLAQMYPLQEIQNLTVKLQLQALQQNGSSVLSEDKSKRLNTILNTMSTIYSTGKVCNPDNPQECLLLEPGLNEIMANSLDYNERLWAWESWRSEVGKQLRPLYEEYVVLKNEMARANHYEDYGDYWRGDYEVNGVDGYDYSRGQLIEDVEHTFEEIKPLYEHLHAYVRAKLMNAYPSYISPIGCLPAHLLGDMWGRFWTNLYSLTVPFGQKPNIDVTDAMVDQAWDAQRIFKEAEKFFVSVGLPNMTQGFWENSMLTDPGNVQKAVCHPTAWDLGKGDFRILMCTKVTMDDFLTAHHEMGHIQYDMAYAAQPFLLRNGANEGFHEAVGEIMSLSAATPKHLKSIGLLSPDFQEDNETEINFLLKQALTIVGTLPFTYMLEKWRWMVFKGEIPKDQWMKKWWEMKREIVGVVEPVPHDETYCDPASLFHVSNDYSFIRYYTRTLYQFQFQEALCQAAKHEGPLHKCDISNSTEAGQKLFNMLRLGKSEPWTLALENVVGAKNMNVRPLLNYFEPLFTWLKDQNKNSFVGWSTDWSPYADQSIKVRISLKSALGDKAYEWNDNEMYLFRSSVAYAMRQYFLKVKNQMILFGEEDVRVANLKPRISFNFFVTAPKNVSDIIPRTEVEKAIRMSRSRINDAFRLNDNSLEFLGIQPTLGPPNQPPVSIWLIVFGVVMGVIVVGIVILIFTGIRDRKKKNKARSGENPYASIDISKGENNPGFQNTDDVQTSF

[5] = biological target: Procathepsin L (Homo sapiens, UniProt P07711); assay: Inhibition of human recombinant Cathepsin L […] using Z-FR-AMC as substrate incubated for 30 mins by fluorometric assay
Chain of Procathepsin L (P07711 whole entry): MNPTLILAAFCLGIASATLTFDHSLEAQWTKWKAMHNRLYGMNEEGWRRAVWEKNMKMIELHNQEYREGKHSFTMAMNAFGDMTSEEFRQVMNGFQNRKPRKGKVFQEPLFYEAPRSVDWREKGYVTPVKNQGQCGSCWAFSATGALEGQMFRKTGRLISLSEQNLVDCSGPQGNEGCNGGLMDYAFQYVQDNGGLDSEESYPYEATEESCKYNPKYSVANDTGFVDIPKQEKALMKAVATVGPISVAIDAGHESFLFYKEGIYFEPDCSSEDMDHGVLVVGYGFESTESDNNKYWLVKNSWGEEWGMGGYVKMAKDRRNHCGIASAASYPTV

[6] = test system: Human coronavirus 229E; assay: Antiviral activity against HCoV-229E; assay type: functional, organism-based
[7] = biological target: T1, Angiotensin-converting enzyme 2; assay: Inhibition of human recombinant ACE2 at 50 uM using (7Mca-Y-V-A- D -A-P- K(Knp) as a flurogenic substrate measured after 10 mins by fluorescence based analysis
[8] = biological target: T1, Angiotensin-converting enzyme 2; assay: Inhibition of SARS-CoV S binding to human recombinant ACE2 expressed in Escherichia coli BL21(DE3) incubated for 2 hrs by ELISA method
[9] = biological target: T1, Angiotensin-converting enzyme 2; assay: Inhibition of human ACE2 (unknown origin) at 0.5 uM
[10] = Selectivity index, ratio of CC50 for African green monkey Vero cells to EC50 for SARS-CoV-2 nCoV-2019; assay type: toxicity; conditions: read-out: Selectivity Index
[11] = biological target: T1, Angiotensin-converting enzyme 2; assay: Inhibition of human recombinant ACE2
[12] = test system: SARS-CoV; assay: Antiviral activity against SARS-CoV infected in African green monkey Vero cells assessed as viral growth inhibition; assay type: functional, organism-based; conditions: Severe acute respiratory syndrome-related coronavirus
[13] = test system: SARS-CoV-2; assay: Antiviral activity against SARS-COV2 infected in African green monkey Vero B cells incubated for 48 hrs by ELISA; assay type: functional, organism-based; conditions: Severe acute respiratory syndrome coronavirus 2, Vero B
[14] = Inhibition of MERS-CoV S protein RBD (E367 to Y606 residues) expressed in Fc portion of the human IgG1 in CHO cells by chromatography method; set-up: species or system Middle East respiratory syndrome-related coronavirus
[15] = Inhibition of MERS-CoV Main protease; set-up: species or system Middle East respiratory syndrome-related coronavirus
[16] = test system: Mus musculus; assay: Antiviral activity against MERS-COV infected in BALB/c mouse at 5 mg/kg; assay type: functional, organism-based
[17] = Antiviral activity against HCoV-NL63 assessed as viral growth inhibition; assay type: functional, Human coronavirus NL63
[18] = test system: Human coronavirus OC43; assay: Antiviral activity against HCoV-OC43 assessed as viral growth inhibition; assay type: functional, organism-based; conditions: Betacoronavirus 1
[19] = Inhibition of clathrin mediated endocytosis (unknown origin); set-up: species or system Homo sapiens

COc1ccc(S(=O)(=O)O)cc1/N=N/c1c(S(=O)(=O)O)cc2cc(Nc3nc(Nc4ccccc4)nc(Nc4cc(C)c(/N=N/c5cc(S(=O)(=O)O)cc6cc(S(=O)(=O)O)cc(O)c56)cc4OC)n3)ccc2c1O
CC50 at 72 h [1]: 26.9 µM

CC(C)(C)OC(=O)N[C@@H](Cc1c[nH]c2ccccc12)C(=O)NNC(=O)OCC(=O)N1CCCc2ccccc21
EC50 [2]: 0.273 µM
EC50 [3]: 0.193 µM

NCCNCCN1CC1
Ki [4]: 459 µM

C/C(=N/NC(N)=S)c1cccs1
EC50 [2]: 6.4 µM
IC50 [5]: 5.33 µM
CC50 at 72 h [1]: 100 µM

O=C(NC(Cc1ccccc1)C(=O)N1CCC(O)(c2ccc(Br)cc2)CC1)c1ccccc1 (stereo unspecified)
EC50 [6]: 110 µM

CC(C)CC(CC(=O)NO)C(=O)NC(C(=O)NC(C)C(=O)NCCN)C(C)(C)C (stereo unspecified)
IC50 [7]: 0.2 µM

C=C(N[C@@H](CCCN=C(N)N)C(=O)Cl)[C@@H](CCCCN)NC(=O)[C@H](NC(=O)[C@H](CCCN=C(N)N)NC(=O)CCCCCCCCCC)C(C)C
IC50 [5]: 75 µM

CC[C@H](C)[C@H](NC(=O)[C@H](CO)NC(=O)[C@H](CCCCN)NC(=O)[C@H](CCC(N)=O)NC(=O)[C@H](CO)NC(=O)[C@@H](NC(=O)[C@@H](N)CO)[C@@H](C)O)C(=O)N[C@H](C(=O)N[C@@H](C)C(=O)N[C@@H](Cc1ccc(O)cc1)C(=O)N[C@H](C(=O)N[C@@H](CCSC)C(=O)O)[C@@H](C)O)C(C)C
IC50 [8]: 0.00188 µM

CC(C)C[C@H](NC(=O)[C@@H]1CCCN1C(=O)[C@H](CO)NC(=O)[C@H](CS)NC(=O)[C@H](Cc1cnc[nH]1)NC(=O)[C@H](CO)NC(=O)[C@H](Cc1ccc(O)cc1)NC(=O)[C@H](CC(=O)O)NC(=O)CN)C(=O)N[C@@H](CCCNC(=N)N)C(=O)N[C@@H](Cc1ccc(O)cc1)C(=O)N[C@@H](Cc1ccc(O)cc1)C(=O)N1CCC[C@H]1C(=O)N[C@@H](Cc1c[nH]c2ccccc12)C(=O)N[C@@H](Cc1c[nH]c2ccccc12)C(=O)N[C@@H](CCCCN)C(=O)N[C@@H](CS)C(=O)N[C@H](C(=O)N[C@@H](Cc1ccc(O)cc1)C(=O)N1CCC[C@H]1C(=O)N[C@@H](CC(=O)O)C(=O)N1CCC[C@H]1C(=O)N[C@@H](CCC(=O)O)C(=O)NCC(=O)NCC(=O)NCC(=O)O)[C@@H](C)O
Ki [4]: 0.0028 µM
IC50 [9]: 0.01 µM

CC[C@H](C)[C@@H](NC(=O)[C@H]1CCCN1C(=O)[C@H](CCC(N)=O)NC(=O)[C@H](Cc1ccc(O)cc1)NC(=O)CNC(=O)[C@H](CCCCN)NC(=O)[C@H](Cc1ccc(O)cc1)NC(=O)[C@@H](NC(=O)[C@H](Cc1ccc(O)cc1)NC(=O)[C@H](CC(C)C)NC(=O)[C@H](Cc1ccccc1)NC(=O)CN)C(C)C)C(=O)O
IC50 [8]: 0.0043 µM

CC(C)CC(CC(=O)NO)C(=O)NC(Cc1ccc2ccccc2c1)C(=O)NC(C)C(N)=O (stereo unspecified)
IC50 [7]: 0.1 µM

O=C(OC[C@H]1O[C@@H](OC(=O)c2cc(O)c(O)c(O)c2)[C@H](OC(=O)c2cc(O)c(O)c(O)c2)[C@H](OC(=O)c2cc(O)c(O)c(O)c2)[C@@H]1O)c1cc(O)c(O)c(O)c1
CC50 at 72 h [1]: 1080 µM
selectivity ratio [10]: 240

OC(COc1cccc(OCC(O)CN2CCCCC2)c1)CN1CCCCC1 (stereo unspecified)
EC50 [2]: 3 µM

CC(C)CC(NC(Cc1cncn1Cc1cc(Cl)cc(Cl)c1)C(=O)O)C(=O)O (stereo unspecified)
IC50 [7]: 0.00044 µM

O=C(Nc1ccc2c(c1)C(=O)c1ccccc1C2=O)c1ccccc1
IC50 [11]: 9.7 µM
CC50 at 72 h [1]: 20 µM

CC[C@H](C)[C@H](NC(=O)CNC(=O)[C@@H](NC(=O)[C@@H](NC(=O)[C@@H](NC(=O)[C@H](Cc1ccc(O)cc1)NC(=O)[C@@H](N)Cc1ccccc1)[C@@H](C)O)[C@@H](C)O)[C@@H](C)O)C(=O)NCC(=O)N[C@@H](Cc1ccc(O)cc1)C(=O)N[C@@H](CCC(N)=O)C(=O)N1CCC[C@@H]1C(=O)N[C@H](Cc1ccc(O)cc1)C(=O)O
IC50 [8]: 0.00699 µM

CCC[C@@H]([C@@H](CC(C)C)C(=O)N[C@@H](CCCCNC(=O)OCc1ccccc1)C(=O)Nc1nccs1)N(O)C=O
IC50 [7]: 0.001 µM

CC[C@H](C)[C@H](NC(=O)[C@H](C)NC(=O)[C@H](CCCCN)NC(=O)[C@H](CC(N)=O)NC(=O)[C@H](Cc1ccccc1)NC(=O)[C@H](CCC(N)=O)NC(=O)[C@H](CC(N)=O)NC(=O)[C@H](C)NC(=O)[C@@H](NC(=O)[C@H](CCC(N)=O)NC(=O)[C@H](CCCCN)NC(=O)[C@H](CCC(N)=O)NC(=O)[C@H](CC(N)=O)NC(=O)[C@H](CCC(=O)O)NC(=O)[C@@H](N)Cc1ccc(O)cc1)[C@@H](C)CC)C(=O)N[C@@H](CO)C(=O)N[C@@H](CCC(N)=O)C(=O)N[C@H](C(=O)N[C@@H](CCC(N)=O)C(=O)N[C@@H](CCC(=O)O)C(=O)N[C@@H](CO)C(=O)N[C@@H](CC(C)C)C(=O)N[C@H](C(=O)N[C@H](C(=O)N[C@H](C(=O)N[C@@H](CO)C(=O)N[C@H](C(=O)N[C@@H](C)C(=O)O)[C@@H](C)O)[C@@H](C)O)[C@@H](C)O)[C@@H](C)O)[C@@H](C)CC
EC50 [12]: 1.61 µM

CC[C@H](C)[C@H](NC(=O)[C@H](Cc1ccc(O)cc1)NC(=O)[C@H](CO)NC(=O)[C@H](CCC(=O)O)NC(=O)[C@H](CC(N)=O)NC(=O)[C@H](CC(C)C)NC(=O)[C@H](C)NC(=O)[C@H](CCCCN)NC(=O)[C@@H](NC(=O)[C@@H](NC(=O)[C@H](CCC(N)=O)NC(=O)[C@H](CCC(N)=O)NC(=O)[C@H](CC(C)C)NC(=O)[C@H](CO)NC(=O)[C@H](CC(C)C)NC(=O)[C@H](CCSC)NC(=O)[C@H](CCC(=O)O)NC(=O)[C@H](Cc1ccc(O)cc1)NC(=O)[C@@H](NC(=O)[C@H](CC(C)C)NC(=O)[C@H](CC(=O)O)NC(=O)[C@H](CC(C)C)NC(=O)[C@H](CC(C)C)NC(=O)[C@@H](NC(=O)[C@@H](NC(=O)[C@H](CC(N)=O)NC(=O)[C@@H](NC(=O)[C@H](CCC(N)=O)NC(=O)[C@@H](NC(=O)[C@H](CC(C)C)NC(=O)[C@@H](N)CO)[C@@H](C)O)[C@@H](C)CC)[C@@H](C)O)[C@@H](C)O)[C@@H](C)O)C(C)C)C(C)C)C(=O)N[C@@H](CC(=O)O)C(=O)N[C@@H](CC(C)C)C(=O)N[C@@H](CCCCN)C(=O)N[C@@H](CCC(=O)O)C(=O)N[C@@H](CC(C)C)C(=O)O
EC50 [13]: > 1000 µM
IC50 [14]: 0.6 µM

CC[C@H](C)[C@H](NC(=O)[C@H](C)NC(=O)[C@H](CCC(=O)O)NC(=O)[C@H](CCC(=O)O)NC(=O)[C@H](CC(C)C)NC(=O)[C@H](CCCCN)NC(=O)[C@H](CCCCN)NC(=O)[C@H](CCSC)NC(=O)[C@H](CCC(=O)O)NC(=O)[C@H](Cc1ccc(O)cc1)NC(=O)[C@H](CCC(=O)O)NC(=O)[C@H](CC(C)C)NC(=O)[C@H](CC(=O)O)NC(=O)[C@H](CC(C)C)NC(=O)[C@H](Cc1ccccc1)NC(=O)[C@@H](NC(=O)[C@@H](NC(=O)[C@H](CC(N)=O)NC(=O)[C@@H](NC(=O)[C@H](CCC(N)=O)NC(=O)[C@H](CC(=O)O)NC(=O)[C@H](CC(C)C)NC(=O)[C@@H](N)CO)[C@@H](C)CC)C(C)C)[C@@H](C)O)C(=O)N[C@@H](CCCCN)C(=O)N[C@@H](CCCCN)C(=O)N[C@@H](CC(C)C)C(=O)N[C@@H](CCC(=O)O)C(=O)N[C@@H](CCC(=O)O)C(=O)N[C@@H](CO)C(=O)N[C@@H](Cc1ccc(O)cc1)C(=O)N[C@H](C(=O)N[C@@H](CC(=O)O)C(=O)N[C@@H](CC(C)C)C(=O)N[C@@H](CCCCN)C(=O)N[C@@H](CCC(=O)O)C(=O)N[C@@H](CC(C)C)C(=O)O)[C@@H](C)CC
IC50 [15]: 0.19 µM
IC50 [16]: 2.38 µM
IC50 [17]: 6.02 µM
IC50 [6]: 3.35 µM
IC50 [18]: 1.81 µM

CC(C)[C@H](NC(=O)OCc1ccccc1)C(=O)NC(C=O)Cc1ccccc1 (stereo partly drawn) (Cbz-Val-[ξF]-aldehyde)
EC50 [2]: 0.1 µM

CN(C)C(=O)COC(=O)Cc1ccc(OC(=O)c2ccc(NC(=N)N)cc2)cc1 [CAMOSTAT]
IC50 [5]: 10 µM

CCN(CC)CCCC(C)Nc1ccnc2cc(Cl)ccc12 (stereo unspecified) [CHLOROQUINE]
CC50 at 72 h [1]: > 100 µM
IC50 [13]: 1.13 µM
IC50 [7]: 1.13 µM

CN(C)CCCN1c2ccccc2Sc2ccc(Cl)cc21 [CHLORPROMAZINE]
IC50 [19]: 7.24 µM

CCN(CCO)CCCC(C)Nc1ccnc2cc(Cl)ccc12 (stereo unspecified) [HYDROXYCHLOROQUINE]
IC50 [7]: 0.72 µM

CN1CCN(C(=O)N[C@@H](Cc2ccccc2)C(=O)N[C@H](/C=C/S(=O)(=O)c2ccccc2)CCc2ccccc2)CC1 [K-777]
CC50 at 72 h [1]: > 10 µM
IC50 [17]: 0.00678 µM
IC50 [6]: 0.00148 µM
IC50 [14]: 0.0461 µM

O=c1cc(-c2ccc(O)c(O)c2)oc2cc(O)cc(O)c12 [LUTEOLIN]
CC50 at 72 h [1]: 155 µM
selectivity ratio [10]: 14.6

CC(CN1c2ccccc2Sc2ccccc21)N(C)C (stereo unspecified) [PROMETHAZINE]
IC50 [19]: 7.48 µM

O=c1c(O)c(-c2ccc(O)c(O)c2)oc2cc(O)cc(O)c12 [QUERCETIN]
CC50 at 72 h [1]: 3320 µM
